According to publication PMC7265429, “Characterization of a new small-molecule inhibitor of HDAC6 in glioblastoma” (Cell Death & Disease, 2020):

System: GNS166 cells
Experiment: Microarray whole-transcriptome gene expression analysis
Format: cell-based, human
Details: DMSO vs SAHA, downregulated
Procedure: Whole-transcriptome analysis was performed from 300 ng of RNA using HuGene-2_0-st-v1 expression array (Affymetrix), which covers 48,226 transcripts. Raw data were first checked for quality purposes through the Affymetrix® Expression Console™ Software v1.4.1 and TAC software v4.0. Then, data were normalized using the Robust Multi-array Average (RMA) and analyzed by Limma tool. Probesets with FDR-corrected p-values smaller than 0.05 were selected. Functional enrichment on Gene Ontology (GO) biological processes was performed on a smaller subset of the differentially expressed genes (corrected p-value < 0.001) by means of Broad Institute GSEA. […] The data that support this study have been deposited in NCBI´s Gene Expression Omnibus and are accessible through GEO series accession number GSE143887.

## O=C(CCCCCCC(=O)Nc1ccccc1)NO [SAHA, Suberoylanilide hydroxamic acid]
Transcript TC0X[…].hg.1
  logFC IRAK1: -1.235
Transcript TC0100006494.hg.1
  logFC B3GALT6: -0.9983
Transcript TC0100007463.hg.1
  logFC HMGN2: -1.008
Transcript TC0100007841.hg.1
  logFC CDCA8: -1.807
Transcript TC0100008033.hg.1
  logFC ERMAP: -2.3938
Transcript TC0100008101.hg.1
  logFC KIF2C: -1.858
Transcript TC0100008190.hg.1
  logFC CMPK1: -1.434
Transcript TC0100008807.hg.1
  logFC NEXN: -1.823
Transcript TC0100009876.hg.1
  logFC HIST2H2AA3: -1.529
Transcript TC0100009877.hg.1
  logFC HIST2H3A: -1.612
Transcript TC0100009939.hg.1
  logFC GABPB2: -1.449
Transcript TC0100010100.hg.1
  logFC CKS1B: -1.171
Transcript TC0100010161.hg.1
  logFC PMF1: -1.537
Transcript TC0100010397.hg.1
  logFC NUF2: -2.331
Transcript TC0100010786.hg.1
  logFC FAM163A: -1.762
Transcript TC0100011581.hg.1
  logFC CENPF: -1.482
Transcript TC0100013028.hg.1
  logFC EPHA2: -1.043
Transcript TC0100013369.hg.1
  logFC STMN1: -1.036
Transcript TC0100015701.hg.1
  logFC HIST2H3A: -1.662
Transcript TC0100016831.hg.1
  logFC ASPM: -1.487
Transcript TC0100016893.hg.1
  logFC DDX59: -1.42
Transcript TC0100017075.hg.1
  logFC NUCKS1: -1.264
Transcript TC0100017100.hg.1
  logFC EIF2D: -1.459
Transcript TC0100017142.hg.1
  logFC CD34: -2.059
Transcript TC0100017523.hg.1
  logFC LIN9: -1.223
Transcript TC0100018209.hg.1
  logFC ZBTB8A: -1.532
Transcript TC0100018482.hg.1
  logFC HIST2H2AA4: -1.569
Transcript TC0200006648.hg.1
  logFC IAH1: -1.549
Transcript TC0200006677.hg.1
  logFC RRM2: -1.424
Transcript TC0200008464.hg.1
  logFC KCNIP3: -2.439
Transcript TC0200008502.hg.1
  logFC NCAPH: -2.071
Transcript TC0200009739.hg.1
  logFC GALNT5: -2.15
Transcript TC0200010443.hg.1
  logFC CFLAR: -1.832
Transcript TC0200011551.hg.1
  logFC ADI1: -2.286
Transcript TC0200013135.hg.1
  logFC EVA1A: -1.744
Transcript TC0200014610.hg.1
  logFC NMI: -2.309
Transcript TC0200014845.hg.1
  logFC SPC25: -1.44
Transcript TC0200015971.hg.1
  logFC SLC16A14: -1.405
Transcript TC0200016099.hg.1
  logFC HJURP: -1.261
Transcript TC0200016417.hg.1
  logFC CENPA: -1.421
Transcript TC0200016423.hg.1
  logFC SPDYA: -1.919
Transcript TC0200016447.hg.1
  logFC ACYP2: -1.266
Transcript TC0300006575.hg.1
  logFC FANCD2: -1.767
Transcript TC0300007223.hg.1
  logFC KIF15: -1.9928
Transcript TC0300008467.hg.1
  logFC ARHGAP31: -1.69
Transcript TC0300008952.hg.1
  logFC FAIM: -1.871
Transcript TC0300009799.hg.1
  logFC RTP4: -1.468
Transcript TC0300011436.hg.1
  logFC SUCLG2: -1.146
Transcript TC0300013751.hg.1
  logFC BDH1: -1.665
Transcript TC0300013904.hg.1
  logFC NAALADL2: -1.839
Transcript TC0300013906.hg.1
  logFC KCNMB2: -1.816
Transcript TC0400009396.hg.1
  logFC NEIL3: -0.9384
Transcript TC0400011748.hg.1
  logFC CCNA2: -1.45
Transcript TC0400012473.hg.1
  logFC GPM6A: -1.528
Transcript TC0500006472.hg.1
  logFC TRIP13: -1.825
Transcript TC0500006523.hg.1
  logFC NDUFS6: -0.9474
Transcript TC0500007138.hg.1
  logFC IL7R: -2.627
Transcript TC0500007303.hg.1
  logFC NNT: -1.728
Transcript TC0500007665.hg.1
  logFC CCNB1: -1.603
Transcript TC0500008777.hg.1
  logFC KIF20A: -2.05
Transcript TC0500009587.hg.1
  logFC HIGD2A: -1.228
Transcript TC0500009610.hg.1
  logFC NSD1: -1.443
Transcript TC0500011228.hg.1
  logFC ARSB: -1.571
Transcript TC0500012162.hg.1
  logFC BRD8: -1.077
Transcript TC0500013193.hg.1
  logFC CRHBP: -2.74
Transcript TC0500013230.hg.1
  logFC PCBD2: -1.097
Transcript TC0500013328.hg.1
  logFC FAM169A: -1.569
Transcript TC0600007268.hg.1
  logFC HIST1H4C: -1.755
Transcript TC0600007282.hg.1
  logFC HIST1H2BF: -1.711
Transcript TC0600007284.hg.1
  logFC HIST1H4E: -2.005
Transcript TC0600007285.hg.1
  logFC HIST1H2AE: -1.564
Transcript TC0600007380.hg.1
  logFC HIST1H2AL: -1.235
Transcript TC0600009140.hg.1
  logFC GTF3C6: -2.124
Transcript TC0600011123.hg.1
  logFC HIST1H4B: -1.235
Transcript TC0600011124.hg.1
  logFC HIST1H3B: -1.868
Transcript TC0600011135.hg.1
  logFC HIST1H3D: -1.444
Transcript TC0600011136.hg.1
  logFC HIST1H2BG: -1.568
Transcript TC0600011145.hg.1
  logFC HIST1H4H: -1.26
Transcript TC0600011184.hg.1
  logFC HIST1H2BJ: -1.604
Transcript TC0600011185.hg.1
  logFC HIST1H2BK: -1.804
Transcript TC0600011507.hg.1
  logFC PSMB8: -1.143
Transcript TC0600011870.hg.1
  logFC DNPH1: -1.264
Transcript TC0600013602.hg.1
  logFC FBXO5: -1.287
Transcript TC0600014083.hg.1
  logFC HIST1H2AG: -2.001
Transcript TC0600014283.hg.1
  logFC NUDT3: -1.135
Transcript TC0700007610.hg.1
  logFC LANCL2: -1.812
Transcript TC0700008010.hg.1
  logFC GTF2I: -1.635
Transcript TC0700008542.hg.1
  logFC MEPCE: -1.622
Transcript TC0700008873.hg.1
  logFC CAV1: -0.9681
